Laboratory results taken from US7635779B2, “Oxy substituted flavones as antihyperglycemic and antidyslipidemic agents” (Council of Scientific & Industrial Research, priority 2004, dated 2009).
Where two headings read alike, the source gives them in different places.

How the values were obtained:
[1] = tested on: sucrose loaded rat; assay: Sucrose loaded rat model (SLM), antihyperglycemic activity; format: in vivo; conditions: for % Fall in blood glucose levels, SLM: 100 mg/kg oral, AUC vs control; for inhibition in vivo at 100 mg/kg: Rattus norvegicus, po, 2 h, read-out: % Fall in blood glucose levels, SLM
Protocol: Male albino rats of Charles Foster/Wistar strain of average body weight 160±20 g were selected for this study. The blood glucose level of each animal was checked by glucometer using glucostrips (Boehringer Mannheim) after 16 h starvation. Animals showing blood glucose levels between 3.33 to 4.44 mM (60 to 80 mg/dl) were divided into groups of five to six animals in each. Animals of experimental group were administered suspension of the desired synthetic compound orally (made in 1.0% gum acacia) at a dose of 100-mg/kg-body weight. Animals of control group were given an equal amount of 1.0% gum acacia. A sucrose load (10.0 g/kg) was given to each animal orally exactly after 30 min post administration of the test sample/vehicle. Blood glucose profile of each rat was again determined at 30, 60, 90 and 120 min post administration of sucrose by glucometer. Food but not water was withheld from the cages during the course of experimentation. Quantitative glucose tolerance of each animal was calculated by Area Under Curve (AUC) method (Prism Software). Comparing the AUC of experimental and control groups determined the percentage antihyperglycemic activity. Statistical comparison was made by Dunnett's test.

[2] = tested on: triton WR-1339 induced hyperlipidemic rats; assay: Triton model, antidyslipidemic activity; format: in vivo, rat; conditions: 100 mg/kg oral, plasma after 18 h; for inhibition in vivo at 100 mg/kg: Rattus norvegicus
Protocol: Male Charles foster rats weighing 200-225 g were divided into control, hyperlipidemic and hyperlipidemic plus drug treated groups containing six animals in each group. Hyperlipidemia was induced by administration of triton WR-1339 (200 mg/kg i.p.). All animals were maintained on a special pellet diet and water ad libitum. Compounds and standard drug were macerated with 0.2% aqueous gum acacia suspension. The suspension was fed orally at the dose of 100 mg/kg simultaneously with triton in drug treated group. The animals of control group received the same amount of gum acacia by similar route of administration. At the end of the experiment, after 18 h, blood was withdrawn from retro orbital plexus and plasma was used for the assay of total cholesterol, phospholipid and triglycerides.
Cholesterol was estimated using the kit provided by Roche Diagnostics. Cholesterol esters are enzymatically hydrolyzed by cholesterol esterase (CE) to cholesterol and free fatty acids. Free cholesterol, including that originally present, is then oxidized by cholesterol oxidase (CO) to cholest-4-en-3-one and hydrogen peroxide. The hydrogen peroxide combines with hydroxy benzoic acid (HBA) and 4-aminoantipyrine (4AAA) in the presence of peroxidase (POD) to form a chromophore (quinoneimine dye), which may be quantitated at 500-505 nm. The intensity of red colour formed is directly proportional to the concentration of total cholesterol in the specimen and measured spectrophotometrically (Searcy, C. L. Diagnostic Biochemistry, 1969, McGraw Hill, New York; Ellefson, R. D.; Caraway, W. T. Fundamentals of clinical chemistry, 1976, Ed Tietz N W, 506-515.)
Triglycerides were estimated using the kit provided by Roche Diagnostics. Lipoprotein lipase hydrolyses triglycerides to yield glycerol and fatty acids. Glycerol kinase converts glycerol to glycerol-3-phosphate, which is oxidized by glycerol phosphate oxidase to dihydroxy acetone phosphate and hydrogen peroxide. In the presence of peroxidase, hydrogen peroxide oxidatively couples with 4-aminoantipyrine and 4-chloro phenol to produce red quinonimine dye. The intensity of red colour formed is directly proportional to the concentration of triglycerides in the specimen and is measured by photometrically (Wahlefeld, A. W.; Bergmeyer, H. U. Ed. Methods of enzymatic analysis, 2nd English edition, New York, N.Y., Academic press inc, 1831-1840.).
Serum (0.2 mL) and perchloric acid (1.0 mL) was digested at 180° C. for 1-1.5 h till the solution became colorless. The liberated inorganic phosphate (Pi) was measured by the method of Fiske and Subbarow (Fiske, C. H.; Subbarow, V. J. Biol. Chem. 1925, 66, 375.). 1 mL of 2.5% ammonium molybdate (prepared in 5 N sulphuric acid) and 0.5 mL reducing agent (4-amino naphthol sulphonic acid, 0.2%), sodium metabisulphite (2.4% w/v in distilled water) was added to the above tubes and mixed well. The reaction mixture was […] with 2.5 mL of triple distilled water and kept at 60° C. in water bath for 20 min. For standard, an appropriate amount of potassium dihydrogen phosphate dissolved in triple distilled water containing 2-10 μg phosphorous (Pi) was run simultaneously with the experiment tubes. The optical density of the blue colour was recorded at 620 nm against reagent blank. The values of Pi were converted into phospholipid by multiplying with 25 (a constant calibrated from Pi value of lecithin).

[3] = tested on: streptozotocin-induced diabetic rats; assay: Sucrose-challenged streptozotocin-induced diabetic rats (STZ-S); format: in vivo, rat; conditions: 100 mg/kg oral
Protocol: Male albino rats of Sprague Dawley strain of body weight 160+20 g were selected for this study. Streptozotocin (Sigma, USA) was dissolved in 100 mM citrate buffer pH 4.5 and calculated amount of the fresh solution was injected to overnight fasted rats (45 mg/kg) intraperitoneally. Blood glucose level was checked 48 h later by glucostrips and animals showing blood glucose values between 144 to 270 mg/dl (8 to 15 mM) were included in the experiment and termed diabetic. The diabetic animals were divided into groups consisting of five to six animals in each group. Animals of experimental groups were administered suspension of the desired test samples orally (made in 1.0% gum acacia) at a dose of 100-mg/kg-body weight. Animals of control group were given an equal amount of 1.0% gum acacia. A sucrose load of 2.5-g/kg body weight was given after 30 minutes of compound administration. After 30 minutes of post sucrose load blood glucose level was again checked by glucostrips at 30, 60, 90, 120, 180, 240, 300 min and at 24 h, respectively. Animals not found diabetic after 24 hours post treatment of the test sample were not considered and omitted from the calculations and termed as non-responders. […] Food but not water was withheld from the cages during the experimentation. Comparing the AUC of experimental and control groups determined the percent antihyperglycemic activity. Statistical comparison between groups was made by Student's ‘t’ test.
As depicted in the FIGURE, a dose response curve of 34 was obtained by administering different doses of test compound to streptozotocin-induced diabetic rats (Table 6). […]

[4] = phospholipid, read-out: % Fall in lipid levels (Triton model) PL
[5] = total cholesterol, read-out: % Fall in lipid levels (Triton model) TC
[6] = triglycerides, read-out: % Fall in lipid levels (Triton model) TG

| melting point | SMILES | % Fall in blood glucose levels, SLM [1] | inhibition in vivo at 100 mg/kg [2, 4] | inhibition in vivo at 100 mg/kg [2, 5] | inhibition in vivo at 100 mg/kg [2, 6] | inhibition in vivo at 100 mg/kg [1] | % Fall in lipid levels (Triton model) PL ([2]; phospholipid) | % Fall in lipid levels (Triton model) TC ([2]; total cholesterol) | % Fall in lipid levels (Triton model) TG ([2]; triglycerides) | % Fall in blood glucose levels, STZ-S 5 h [3] | % Fall in blood glucose levels, STZ-S 24 h [3] |
| --- | --- | --- | --- | --- | --- | --- | --- | --- | --- | --- | --- |
| 173 to 174 °C | CC(C)NCC(O)COc1ccc2c(=O)cc(-c3cc(OCc4ccccc4)cc(OCc4ccccc4)c3)oc2c1 (centres unmarked) [Compound 35, 3′,5′-Dibenzyloxy-7-(2-hydroxy-3-iso-propylamino-propoxy)-flavone] | NIL | 8% | 13% | 11% | – | – | – | – | – | – |
| 159 to 161 °C | CC(C)(C)NCC(O)COc1ccc2c(=O)cc(-c3ccc(OCc4ccccc4)c(OCc4ccccc4)c3)oc2c1 (centres unmarked) [Compound 37, 7-(3-tert-Butylamino-2-hydroxy-propoxy)-3′,4′-dibenzyloxy-flavone] | NIL | 12% | 23% | 16% | – | – | – | – | – | – |
| 177 to 179 °C | CC(C)NCC(O)COc1ccc2c(=O)cc(-c3ccc(OCc4ccccc4)c(OCc4ccccc4)c3)oc2c1 (centres unmarked) [Compound 38, 3′,4′-Dibenzyloxy-7-(2-hydroxy-3-iso-propylamino-propoxy)-flavone] | NIL | 5% | 16% | 14% | – | – | – | – | – | – |
| 119 to 120 °C | COc1cc(-c2cc(=O)c3ccc(OCC(O)CNC(C)(C)C)cc3o2)cc(OC)c1OC (centres unmarked) [Compound 40, 7-(3-tert-Butylamino-2-hydroxy-propoxy)-3′,4′,5′-trimethoxy-flavone] | NIL | 26% | 24% | 28% | – | – | – | – | – | – |
| 170 to 171 °C | COc1cc(-c2cc(=O)c3ccc(OCC(O)CN4CCN(c5ccccc5)CC4)cc3o2)cc(OC)c1OC (centres unmarked) [Compound 42, 7-[2-Hydroxy-3-(4-phenylpiperazin-1-yl)-propoxy]-3′,4′,5′-trimethoxy-flavone] | – | 8% | 19% | 23% | 5.64% | – | – | – | – | – |
| 145 to 146 °C | COc1cc(OC)cc(-c2cc(=O)c3ccc(OCC(O)CNC(C)(C)C)cc3o2)c1 (centres unmarked) [Compound 43, 7-[3-tert-Butylamino-2-hydroxy-propoxy]-3′,5′-dimethoxy flavone] | NIL | 19% | 21% | 17% | – | – | – | – | – | – |
| 144 to 145 °C | COc1ccc(-c2cc(=O)c3ccc(OCC(O)CNC(C)C)cc3o2)cc1OC (centres unmarked) [Compound 46, 3′,4′-Dimethoxy-7-[2-hydroxy-3-iso-propylamino-propoxy]-flavone] | – | – | – | – | 23.9% | – | – | – | – | – |
| – | CC(C)(C)NCC(O)COc1ccc2c(=O)cc(-c3ccc(O)c(O)c3)oc2c1 (centres unmarked) [Compound 50, 7-(3-tert-Butylamino-2-hydroxy-propoxy)-3′,4′-dihydroxy-flavone] | NIL | 23% | 21% | 25% | – | – | – | – | – | – |
| – | CC(C)NCC(O)COc1ccc2c(=O)cc(-c3ccc(O)c(O)c3)oc2c1 (centres unmarked) [Compound 51, 3′,4′-Dihydroxy-7-(2-hydroxy-3-iso-propylamino-propoxy)-flavone] | NIL | 13% | 15% | 19% | – | – | – | – | – | – |
| – | CC(C)(C)NCC(O)COc1ccc2oc(-c3ccc(O)c(O)c3)cc(=O)c2c1 (centres unmarked) [Compound 52, 6-(3-tert-Butylamino-2-hydroxy-propoxy)-3′,4′-dihydroxy-flavone] | – | 23% | 24% | 25% | 4.96% | – | – | – | – | – |
| – | O=C1NC(=O)C(=Cc2ccc(OCCOc3ccc4c(=O)cc(-c5cc(OCc6ccccc6)cc(OCc6ccccc6)c5)oc4c3)cc2)S1 [Compound 62, 3′,5′-Dibenzyloxy-7-{2-[4-(thiazolidin-2,4-dione-5-ylidinemethyl)-phenoxy]-ethoxy}-flavone] | NIL | – | – | – | – | 15% | 15% | 18% | – | – |
| – | O=C1NC(=O)C(=Cc2ccc(OCCOc3ccc4c(=O)cc(-c5ccc(OCc6ccccc6)c(OCc6ccccc6)c5)oc4c3)cc2)S1 [Compound 63, 3′,4′-Dibenzyloxy-7-{2-[4-(thiazolidin-2,4-dione-5-ylidinemethyl)-phenoxy]-ethoxy}-flavone] | 26.0% | – | – | – | – | – | – | – | – | – |
| – | COc1cc(-c2cc(=O)c3ccc(OCCOc4ccc(C=C5SC(=O)NC5=O)cc4)cc3o2)cc(OC)c1OC [Compound 64, 7-{2-[4-(thiazolidin-2,4-dione-5-ylidinemethyl)-phenoxy]-ethoxy}-3′,4′,5′-trimethoxy-flavone] | 9.59% | – | – | – | – | 25% | 20% | 26% | – | – |
| – | COc1cc(OC)cc(-c2cc(=O)c3ccc(OCCCOc4ccc(C=C5SC(=O)NC5=O)cc4)cc3o2)c1 [Compound 66, 3′,5′-Dimethoxy-7-{3-[4-(thiazolidin-2,4-dione-5-ylidinemethyl)-phenoxy]-propoxy}-flavone] | 28.80% | – | – | – | – | – | – | – | 18.9% | 20.2% |
| – | COc1ccc(-c2cc(=O)c3ccc(OCCCOc4ccc(C=C5SC(=O)NC5=O)cc4)cc3o2)cc1OC [Compound 67, 3′,4′-Dimethoxy-7-{3-[4-(thiazolidin-2,4-dione-5-ylidinemethyl)-phenoxy]-propoxy}-flavone] | 13.60% | – | – | – | – | 14% | 28% | 21% | 18.7% | 13.6% |
